Measured values: ChEMBL document CHEMBL6177980 (J Med Chem, 2025)
Calls of active or inactive are those of the source. No cut-off for these calls is given here.

What was measured:
[1] = Prodrug conversion in C57BL/6J mouse liver microsomes assessed as parent nucleoside metabolite formation at 1 uM measured up to 60 mins in presence of BNPP/NADPH/UDPGA by LC-MS/MS analysis; type: ADME, Microsome; conditions: 1 h
[2] = Prodrug conversion in Sprague-Dawley rat plasma assessed as parent nucleoside metabolite formation at 1 uM measured up to 60 mins by LC-MS/MS analysis; type: ADME, cell-free; conditions: 1 h
[3] = Stability of compound at pH 4.0 assessed as change in purity at 1 mg/ml incubated for 12 hrs by HPLC analysis; type: physicochemical; conditions: buffer, pH 4, 12 h
[4] = Prodrug conversion in Sprague-Dawley rat assessed as AUC (0 to t) of 4'-Fluorouridine metabolite at 2 mg/kg, iv by LC-MS/MS analysis; type: ADME, organism-based; conditions: in vivo
[5] = Prodrug conversion in Beagle dog assessed as Cmax of 4'-Fluorouridine metabolite at 3 mg/kg/day, po treated for 7 days by LC-MS/MS analysis; type: ADME, organism-based, Canis lupus familiaris; conditions: in vivo, 168 h, time 7 day
[6] = Stability in SIF assessed as compound degradation measured for 24 hrs by HPLC analysis; type: physicochemical; conditions: simulated intestinal fluid (SIF), read-out: Drug degradation
[7] = Prodrug conversion in Sprague-Dawley rat assessed as 4'-Fluorouridine metabolite formation in liver at 6 mg/kg, po measured for 0.5 to 24 hrs by LC-MS/MS analysis; type: ADME, organism-based; conditions: in vivo, time 0.5-24 hrs
A549 = experiment: Cytotoxicity against human A549 cells up to 100 uM; type: toxicity, cell-based; conditions: a549, 100 µM
[8] = Stability of compound at pH 6.8 assessed as change in purity at 1 mg/ml incubated for 4 hrs by HPLC analysis; type: physicochemical; conditions: buffer, pH 6.8, 4 h
[9] = Prodrug conversion in Sprague-Dawley rat assessed as Cmax of 4'-Fluorouridine metabolite at 20 mg/kg, po by LC-MS/MS analysis; type: ADME, organism-based; conditions: in vivo
[10] = Prodrug conversion in Beagle dog liver microsomes assessed as parent nucleoside metabolite formation at 1 uM measured up to 60 mins in presence of NADPH/UDPGA by LC-MS/MS analysis; type: ADME, Canis lupus familiaris, Microsome; conditions: 1 h
[11] = Prodrug conversion in Sprague-Dawley rat assessed as AUC (0 to t) of 4'-Fluorouridine metabolite at 6 mg/kg, po by LC-MS/MS analysis; type: ADME, organism-based; conditions: in vivo
[12] = Stability in Sprague-Dawley rat plasma administered orally or intravenously; type: ADME, cell-free; conditions: po
[13] = Prodrug conversion in Sprague-Dawley rat assessed as 4'-Fluorouridine metabolite formation in heart at 6 mg/kg, po measured for 0.5 to 24 hrs by LC-MS/MS analysis; type: ADME, organism-based; conditions: in vivo, time 0.5-24 hrs
[14] = test system: Mammarenavirus choriomeningitidis; experiment: In vivo antiviral activity against LCMV infected in C57BL/6-Prf1tm1Sdz/J mouse assessed as appearance of regular splenic nodule structure at 1 to 5 mg/kg, po qd for 7 days; type: functional, organism-based; conditions: dose 1-5 mg/kg, time 7.0 day
[15] = test system: Mammarenavirus choriomeningitidis; experiment: Antiviral activity against LCMV infected in C57BL/6-Prf1tm1Sdz/J mouse assessed as reduction in viral copy number in lung treated orally once daily for 7 days by RT-qPCR analysis; type: functional, organism-based; conditions: dose 1-5 mg/kg, route po, time 7.0 day
[16] = Prodrug conversion in Sprague-Dawley rat assessed as Cmax of 4'-Fluorouridine metabolite at 6 mg/kg, po by LC-MS/MS analysis; type: ADME, organism-based; conditions: in vivo
[17] = Prodrug conversion in Beagle dog assessed as Cmax of 4'-Fluorouridine metabolite at 10 mg/kg, po by LC-MS/MS analysis; type: ADME, organism-based, Canis lupus familiaris; conditions: in vivo
[18] = test system: Mammarenavirus choriomeningitidis; experiment: Antiviral activity against LCMV infected in C57BL/6-Prf1tm1Sdz/J mouse assessed as reduction in viral titer in spleen treated orally once daily for 7 days by RT-qPCR analysis; type: functional, organism-based; conditions: dose 1-5 mg/kg, route po, time 7.0 day
[19] = Stability of compound at pH 1.5 assessed as change in purity at 1 mg/ml incubated for 24 hrs by HPLC analysis; type: physicochemical; conditions: buffer, pH 1.5, 24 h
[20] = Prodrug conversion in C57BL/6J mouse plasma assessed as parent nucleoside metabolite formation at 1 uM measured up to 60 mins by LC-MS/MS analysis; type: ADME, cell-free; conditions: 1 h
[21] = Prodrug conversion in Sprague-Dawley rat assessed as half life of 4'-Fluorouridine metabolite treated orally or intravenously by LC-MS/MS analysis; type: ADME; conditions: in vivo, po
[22] = Toxicity in Sprague-Dawley rat assessed as maximum tolerated dose; conditions: in vivo
[23] = Prodrug conversion in Beagle dog assessed as Cmax of 4'-Fluorouridine metabolite at 3 mg/kg, po by LC-MS/MS analysis; type: ADME, organism-based, Canis lupus familiaris; conditions: in vivo
[24] = AUC (0 to t) in fasted Sprague-Dawley rat at 23 mg/kg, po by LC-MS/MS analysis; type: ADME, organism-based; conditions: in vivo
[25] = Prodrug conversion in Beagle dog assessed as AUC (0 to t) of 4'-Fluorouridine metabolite at 1 mg/kg, po by LC-MS/MS analysis; type: ADME, organism-based, Canis lupus familiaris; conditions: in vivo
[26] = test system: Mammarenavirus choriomeningitidis; experiment: Antiviral activity against LCMV infected in C57BL/6-Prf1tm1Sdz/J mouse assessed as reduction in viral titer in liver treated orally once daily for 7 days by RT-qPCR analysis; type: functional, organism-based; conditions: dose 1-5 mg/kg, route po, time 7.0 day
[27] = Prodrug conversion in Sprague-Dawley rat assessed as Cmax of 4'-Fluorouridine metabolite at 6 mg/kg/day, po treated for 7 days by LC-MS/MS analysis; type: ADME, organism-based; conditions: in vivo, 168 h, time 7 day
[28] = Prodrug conversion in Beagle dog assessed as Cmax of 4'-Fluorouridine metabolite at 1 mg/kg, po by LC-MS/MS analysis; type: ADME, organism-based, Canis lupus familiaris; conditions: in vivo
[29] = Stability of compound at pH 6.8 assessed as change in purity at 1 mg/ml incubated for 24 hrs by HPLC analysis; type: physicochemical; conditions: buffer, pH 6.8, 24 h
[30] = Stability in Beagle dog plasma administered orally or intravenously; type: ADME, cell-free, Canis lupus familiaris; conditions: po
[31] = biological target: Voltage-gated inwardly rectifying potassium channel KCNH2 (Homo sapiens, UniProt Q12809); experiment: Inhibition of hERG; type: toxicity
Voltage-gated inwardly rectifying potassium channel KCNH2, sequence (Q12809 whole entry): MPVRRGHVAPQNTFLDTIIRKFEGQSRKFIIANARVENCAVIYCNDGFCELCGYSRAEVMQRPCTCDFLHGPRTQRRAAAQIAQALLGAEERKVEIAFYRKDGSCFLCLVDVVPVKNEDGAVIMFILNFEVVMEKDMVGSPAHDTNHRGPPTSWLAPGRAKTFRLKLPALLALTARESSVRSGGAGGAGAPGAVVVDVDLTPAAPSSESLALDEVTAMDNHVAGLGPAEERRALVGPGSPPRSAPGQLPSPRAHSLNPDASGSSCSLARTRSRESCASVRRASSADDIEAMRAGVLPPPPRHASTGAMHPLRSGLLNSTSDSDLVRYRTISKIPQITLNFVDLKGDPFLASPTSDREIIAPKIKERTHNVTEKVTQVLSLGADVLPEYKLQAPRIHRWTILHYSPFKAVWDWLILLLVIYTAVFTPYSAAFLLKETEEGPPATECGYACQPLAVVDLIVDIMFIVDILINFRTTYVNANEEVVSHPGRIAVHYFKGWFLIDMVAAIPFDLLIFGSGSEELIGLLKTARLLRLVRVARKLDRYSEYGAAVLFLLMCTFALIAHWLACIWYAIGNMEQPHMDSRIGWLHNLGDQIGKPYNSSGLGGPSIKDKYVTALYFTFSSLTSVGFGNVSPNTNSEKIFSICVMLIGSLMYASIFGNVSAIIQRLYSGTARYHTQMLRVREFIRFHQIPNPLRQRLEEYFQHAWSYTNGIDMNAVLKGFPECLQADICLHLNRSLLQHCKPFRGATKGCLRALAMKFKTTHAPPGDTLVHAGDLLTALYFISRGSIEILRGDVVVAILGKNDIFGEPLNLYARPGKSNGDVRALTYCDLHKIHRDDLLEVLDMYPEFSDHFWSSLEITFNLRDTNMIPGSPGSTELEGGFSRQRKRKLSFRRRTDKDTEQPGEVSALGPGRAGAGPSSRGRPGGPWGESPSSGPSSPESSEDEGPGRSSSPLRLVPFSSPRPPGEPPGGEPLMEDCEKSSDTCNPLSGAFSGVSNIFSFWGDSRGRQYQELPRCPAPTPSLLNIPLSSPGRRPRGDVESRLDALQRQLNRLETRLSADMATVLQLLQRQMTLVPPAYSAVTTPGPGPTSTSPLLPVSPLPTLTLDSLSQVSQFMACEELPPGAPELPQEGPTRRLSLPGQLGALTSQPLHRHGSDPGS

[32] = Prodrug conversion in Sprague-Dawley rat assessed as 4'-Fluorouridine metabolite formation in lung at 6 mg/kg, po measured for 0.5 to 24 hrs by LC-MS/MS analysis; type: ADME, organism-based; conditions: in vivo, time 0.5-24 hrs
[33] = Stability of compound at pH 4.0 assessed as change in purity at 1 mg/ml incubated for 24 hrs by HPLC analysis; type: physicochemical; conditions: buffer, pH 4, 24 h
[34] = Prodrug conversion in Sprague-Dawley rat assessed as AUC (0 to t) of 4'-Fluorouridine metabolite at 2 mg/kg, po by LC-MS/MS analysis; type: ADME, organism-based; conditions: in vivo
[35] = Prodrug conversion in Sprague-Dawley rat assessed as 4'-Fluorouridine metabolite formation in spleen at 6 mg/kg, po measured for 0.5 to 24 hrs by LC-MS/MS analysis; type: ADME, organism-based; conditions: in vivo, time 0.5-24 hrs
[36] = Prodrug conversion in Sprague-Dawley rat assessed as AUC (0 to t) of 4'-Fluorouridine metabolite at 20 mg/kg, po by LC-MS/MS analysis; type: ADME, organism-based; conditions: in vivo
[37] = Prodrug conversion in Sprague-Dawley rat assessed as 4'-Fluorouridine-NTP metabolite formation in spleen at 6 mg/kg, po measured for 0.5 to 24 hrs by LC-MS/MS analysis; type: ADME, organism-based; conditions: in vivo, time 0.5-24 hrs

## CC(C)C(=O)OC[C@@]1(F)O[C@@H](n2ccc(=O)n(COC(=O)c3cccnc3)c2=O)[C@H](OC(=O)C(C)C)[C@@H]1OC(=O)C(C)C
[1]
  Drug metabolism: metabolite_notdetected
[2]
  Drug metabolism: metabolite_detected
[3]
  Activity: 0%
[4]
  AUCt: 1056 ng·h/mL
[5]
  Cmax: 411 ng/mL
[6]
  degraded at 24 h: < 5%
[7]
  Drug metabolism: metabolite_detected
A549
  Activity: Non-toxic
[8]
  Activity: -0.1%
[9]
  Cmax: 1142 ng/mL
[10]
  Drug metabolism: metabolite_detected
[11]
  AUCt: 3023 ng·h/mL
[12]
  Stability: Unstable
[13]
  Drug metabolism: metabolite_detected
[14]
  Activity: Active
[15]
  Activity: Dose-dependent-effect
[16]
  Cmax: 329 ng/mL
[17]
  Cmax: 1501 ng/mL
[18]
  Activity: Dose-dependent-effect
[19]
  Activity: -9.2%
[20]
  Drug metabolism: metabolite_detected
[21]
  t1/2: 15 h
[22]
  MTD: > 500 mg/kg
[23]
  Cmax: 495 ng/mL
[24]
  AUC(0-t): 11800 ng·h/mL
[25]
  AUCt: 257 ng·h/mL
[26]
  Activity: Dose-dependent-effect
[27]
  Cmax: 383 ng/mL
[28]
  Cmax: 139 ng/mL
[29]
  Activity: -0.6%
[30]
  Stability: Unstable
[31]
  inhibition (INH): Not_active
[32]
  Drug metabolism: metabolite_detected
[33]
  Activity: -0.1%
[34]
  AUCt: 962 ng·h/mL
[35]
  Drug metabolism: metabolite_detected
[36]
  AUCt: 11325 ng·h/mL
[37]
  Drug metabolism: metabolite_detected
